ChEMBL document CHEMBL5625252, “Synthesis of peptidomimetics as antibiotic adjuvants for combination with aztreonam to combat MDR Pseudomonas aeruginosa” (Eur J Med Chem, 2023)
Values after ≈ are worked out from the molar mass of the structure shown. Active and inactive are the calls of the source. The rule behind the calls is not given here.

Legend:
Pseudomonas aeruginosa [1] = test: Synergistic antibacterial activity against Pseudomonas aeruginosa 13-35 assessed as aztreonam MIC in CAMH broth medium supplemented with 0.41 to 0.51 mM Mg2+ by checkerboard assay; type: functional
Pseudomonas aeruginosa [2] = test: Antibacterial activity against Pseudomonas aeruginosa 23-Y539 assessed as inhibition of bacterial growth incubated for 18 hrs by agar dilution method; type: functional
Pseudomonas aeruginosa [3] = test: Antibacterial activity against Pseudomonas aeruginosa 23-Y511 assessed as inhibition of bacterial growth incubated for 18 hrs by agar dilution method; type: functional
Pseudomonas aeruginosa [4] = test: Antibacterial activity against Pseudomonas aeruginosa 13-17 assessed as inhibition of bacterial growth incubated for 18 hrs by agar dilution method; type: functional
Pseudomonas aeruginosa [5] = test: Antibacterial activity against Pseudomonas aeruginosa PAO1 infected in Galleria mellonella assessed as larvae survival rate at 100 mg/kg measured after 96 hrs post inoculation in presence of 50 mg/kg aztreonam; type: functional
Pseudomonas aeruginosa [6] = test: Synergistic antibacterial activity against Pseudomonas aeruginosa 16-11 assessed as aztreonam MIC at 128 ug/ml incubated for 18 hrs by checkerboard method; type: functional; conditions: dose 128 µg/ml
Pseudomonas aeruginosa [7] = test: Antibacterial activity against Pseudomonas aeruginosa PAO1 at 128 ug/ml measured upto 24 hrs in presence of aztreonam by time-kill assay; type: functional, organism-based; conditions: dose 128.0 µg/ml
Pseudomonas aeruginosa [8] = test: Antibacterial activity against Pseudomonas aeruginosa 19-46 assessed as inhibition of bacterial growth incubated for 18 hrs by agar dilution method; type: functional
Pseudomonas aeruginosa [9] = test: Antibacterial activity against Pseudomonas aeruginosa 16-2 assessed as decrease in log10 CFU at 128 ug/ml measured after 24 hrs in presence of aztreonam by time-kill assay; type: functional; conditions: dose 128 µg/ml
Pseudomonas aeruginosa [10] = test: Synergistic antibacterial activity against Pseudomonas aeruginosa 16-11 assessed as aztreonam MIC in CAMH broth medium supplemented with 0.41 to 0.51 mM Mg2+ by checkerboard assay; type: functional
Pseudomonas aeruginosa [11] = test: Synergistic antibacterial activity against Pseudomonas aeruginosa 13-17 assessed as aztreonam MIC at 128 ug/ml incubated for 18 hrs by checkerboard method; type: functional; conditions: dose 128 µg/ml
Pseudomonas aeruginosa [12] = test: Antibacterial activity against Pseudomonas aeruginosa 23-Y372 assessed as inhibition of bacterial growth incubated for 18 hrs by agar dilution method; type: functional
Pseudomonas aeruginosa [13] = test: Antibacterial activity against Pseudomonas aeruginosa 13-3 assessed as inhibition of bacterial growth incubated for 18 hrs by agar dilution method; type: functional
Pseudomonas aeruginosa [14] = test: Antibacterial activity against Pseudomonas aeruginosa 12-1 assessed as inhibition of bacterial growth incubated for 18 hrs by agar dilution method; type: functional
Pseudomonas aeruginosa [15] = test: Antibacterial activity against Pseudomonas aeruginosa 16-2 infected in Galleria mellonella assessed as larvae survival rate at 100 mg/kg after 96 hrs of innoculation; type: functional
Pseudomonas aeruginosa [16] = test: Synergistic antibacterial activity against Pseudomonas aeruginosa 21-2 assessed as aztreonam MIC at 128 ug/ml incubated for 18 hrs by checkerboard method; type: functional; conditions: dose 128 µg/ml
Pseudomonas aeruginosa [17] = test: Antibacterial activity against Pseudomonas aeruginosa PAO1 infected in Galleria mellonella assessed as increase in larvae survival at 100 mg/kg measured after 96 hrs post inoculation in presence of 25 mg/kg aztreonam; type: functional
Pseudomonas aeruginosa [18] = test: Synergistic antibacterial activity against Pseudomonas aeruginosa 23-Y417 assessed as aztreonam MIC at 128 ug/ml incubated for 18 hrs by checkerboard method; type: functional; conditions: dose 128 µg/ml
Pseudomonas aeruginosa [19] = test: Antibacterial activity against Pseudomonas aeruginosa PAO1 assessed as inhibition of bacterial growth incubated for 18 hrs by agar dilution method; type: functional
Pseudomonas aeruginosa [20] = test: Antibacterial activity against Pseudomonas aeruginosa 23-Y122 assessed as inhibition of bacterial growth incubated for 18 hrs by agar dilution method; type: functional
Pseudomonas aeruginosa [21] = test: Antibacterial activity against Pseudomonas aeruginosa 16-11 assessed as inhibition of bacterial growth incubated for 18 hrs by agar dilution method; type: functional
Pseudomonas aeruginosa [22] = test: Antibacterial activity against Pseudomonas aeruginosa 16-2 at 128 ug/ml measured upto 24 hrs by time-kill assay; type: functional, organism-based; conditions: dose 128.0 µg/ml
Pseudomonas aeruginosa [23] = test: Antibacterial activity against Pseudomonas aeruginosa 16-2 at 128 ug/ml measured upto 24 hrs in presence of aztreonam by time-kill assay; type: functional, organism-based; conditions: dose 128.0 µg/ml
Pseudomonas aeruginosa [24] = test: Antibacterial activity against Pseudomonas aeruginosa 13-35 assessed as inhibition of bacterial growth incubated for 18 hrs by agar dilution method; type: functional
Pseudomonas aeruginosa [25] = test: Synergistic antibacterial activity against Pseudomonas aeruginosa 13-3 assessed as aztreonam MIC at 128 ug/ml incubated for 18 hrs by checkerboard method; type: functional; conditions: dose 128 µg/ml
Pseudomonas aeruginosa [26] = test: Antibacterial activity against Pseudomonas aeruginosa PAO1 assessed as decrease in log10 CFU at 128 ug/ml measured after 24 hrs in presence of aztreonam by time-kill assay; type: functional; conditions: dose 128 µg/ml
Pseudomonas aeruginosa [27] = test: Synergistic antibacterial activity against Pseudomonas aeruginosa 23-Y364 assessed as aztreonam MIC at 128 ug/ml incubated for 18 hrs by checkerboard method; type: functional; conditions: dose 128 µg/ml
Pseudomonas aeruginosa [28] = test: Synergistic antibacterial activity against Pseudomonas aeruginosa 12-1 assessed as aztreonam MIC in CAMH broth medium supplemented with 0.41 to 0.51 mM Mg2+ by checkerboard assay; type: functional
Pseudomonas aeruginosa [29] = test: Synergistic antibacterial activity against Pseudomonas aeruginosa PAO1 assessed as aztreonam MIC at 128 ug/ml incubated for 18 hrs by checkerboard method; type: functional; conditions: dose 128 µg/ml

## NCCC[C@H](NC(=O)C[C@@H](N)Cc1ccccc1)C(=O)Nc1ccc2ccccc2c1
Pseudomonas aeruginosa [1]
  MIC: 4 µg/mL
Pseudomonas aeruginosa [2]
  MIC: 512 µg/mL (≈ 1220 µM)
Pseudomonas aeruginosa [3]
  MIC: 256 µg/mL (≈ 612 µM)
Pseudomonas aeruginosa [4]
  MIC: 512 µg/mL (≈ 1220 µM)
Pseudomonas aeruginosa [5]
  Activity: 80%
Pseudomonas aeruginosa [6]
  MIC: 2 µg/mL
Pseudomonas aeruginosa [7]
  Activity: Active
Pseudomonas aeruginosa [8]
  MIC: 512 µg/mL (≈ 1220 µM)
Pseudomonas aeruginosa [9]
  Activity: >2 log10CFU/ml
Pseudomonas aeruginosa [10]
  MIC: 2 µg/mL
Pseudomonas aeruginosa [11]
  MIC: 4 µg/mL
Pseudomonas aeruginosa [12]
  MIC: 512 µg/mL (≈ 1220 µM)
Pseudomonas aeruginosa [13]
  MIC: 512 µg/mL (≈ 1220 µM)
Pseudomonas aeruginosa [14]
  MIC: 512 µg/mL (≈ 1220 µM)
Pseudomonas aeruginosa [15]
  Activity: 20%
Pseudomonas aeruginosa [16]
  MIC: 16 µg/mL
Pseudomonas aeruginosa [17]
  Activity: 40%
Pseudomonas aeruginosa [18]
  MIC: 8 µg/mL
Pseudomonas aeruginosa [19]
  MIC: 512 µg/mL (≈ 1220 µM)
Pseudomonas aeruginosa [20]
  MIC: 512 µg/mL (≈ 1220 µM)
Pseudomonas aeruginosa [21]
  MIC: 512 µg/mL (≈ 1220 µM)
Pseudomonas aeruginosa [22]
  Activity: inactive
Pseudomonas aeruginosa [23]
  Activity: Active
Pseudomonas aeruginosa [24]
  MIC: 512 µg/mL (≈ 1220 µM)
Pseudomonas aeruginosa [25]
  MIC: 8 µg/mL
Pseudomonas aeruginosa [26]
  Activity: >2 log10CFU/ml
Pseudomonas aeruginosa [27]
  MIC: 8 µg/mL
Pseudomonas aeruginosa [28]
  MIC: 16 µg/mL
Pseudomonas aeruginosa [29]
  MIC: 2 µg/mL
